According to patent US12522576B2, “Polymorphs of D9-THC naphthoylester” (priority 2019, dated 2026):
Values after ≈ are worked out from the molar mass of the structure shown.

Legend:
[1] = D9 solubility in the liquors at isolation temperature; assay type: physicochemical; settings: p-Xylene/MeOH (1:9), 25 °C, organic solvent or mixture, thermodynamic from solid, batch 5, p-Xylene/MeOH (1:9), seed G, heat T 25, isolation T 25, SP 7, 40.0 mL/g
Protocol: At the end of each experiment, suspensions were equilibrated at the isolation temperature (25 or 5° C.) for at least 18 hours and the solids and liquors separated by centrifugation at the isolation temperature. The Exo/D9/D8 ratio (Exo-D9-THC-naphthoylester impurity/D9-THC-naphthoylester/D8-THC-naphthoylester) was determined in both the isolated solids and the liquors, from which the % Exo-depletion in the isolated solids was calculated. Several solids were also isolated at elevated temperatures to assess the impact of the isolation temperature on Exo-impurity depletion.
In addition, the solubility of D9 in the liquors was determined in most of the explored solvents and used to estimate the yield.

[2] = Gravimetric solubility; assay type: physicochemical; settings: thermodynamic from solid
Protocol: Additional solids or solvents were added to visual solubility samples with vials less than 100 mg/mL to produce slurries at 20 and 50° C. for the subsequent equilibrium solubility assessment. The slurries were stirred at 20 and 50° C. overnight, filtered through 0.2 μm syringe filters and evaporated to dryness under reduced pressure at ambient temperature. Gravimetric solubility was calculated by dividing the dry solids residue mass (mg) by the solvent mass (g). The mg/g solubility values were then converted to mg/mL using solvent density.
The solubility of Group D acetone and DMF solvates were assessed in the corresponding solvents.

[3] = Competitive ripening (relative thermodynamic stability of non-solvated forms)
[4] = Visual solubility of Form B; assay type: physicochemical
Protocol: Solubility of D9-THC-naphthoylester, Form B (Batch 2) was determined by visual assessment in various solvents at RT and 50° C. Aliquots of solvent were added to 20 mg of solids at room temperature and 25 mg of solids at 50° C. until complete dissolution or until a maximum volume of 1 mL was added.

Q: For CCCCCc1cc(OC(=O)c2ccc3ccccc3c2)c2c(c1)OC(C)(C)[C@@H]1CCC(C)=C[C@@H]21 [Form B, (6aR,10aR)-6a,7,8,10a-tetrahydro-6,6,9-trimethyl-3-pentyl-6H-dibenzo[b,d]pyran-1-yl ester], which solubility [1] is on record?
A: 9.8 mg/mL (≈ 20.9 mM)

Q: What about the solubility ([2]; 20 °C, organic solvent or mixture, solvent Acetone/MeOH (1:3), RT, read-out: Gravimetric Solubility at RT) of the same molecule?
A: ~9 mg/mL (≈ 19.2 mM)

Q: And the solubility ([2]; 20 °C, organic solvent or mixture, solvent BuOH/MeOH (1:3), RT, read-out: Gravimetric Solubility at RT)?
A: ~6 mg/mL (≈ 12.8 mM)

Q: What about the solubility ([2]; 20 °C, organic solvent or mixture, solvent EtOH, RT, read-out: Gravimetric Solubility at RT) of the same molecule?
A: ~7 mg/mL (≈ 14.9 mM)

Q: And the solubility ([2]; 20 °C, organic solvent or mixture, solvent Heptane, RT, read-out: Gravimetric Solubility at RT)?
A: ~33 mg/mL (≈ 70.4 mM)

Q: What about the solubility ([2]; 20 °C, organic solvent or mixture, solvent IPA:water (9:1), RT, read-out: Gravimetric Solubility at RT) of the same molecule?
A: ~3 mg/mL (≈ 6.4 mM)

Q: What about the solubility ([2]; 20 °C, organic solvent or mixture, solvent IPA, RT, read-out: Gravimetric Solubility at RT) of the same molecule?
A: ~7 mg/mL (≈ 14.9 mM)

Q: And the solubility ([2]; 20 °C, organic solvent or mixture, solvent MeCN, RT, read-out: Gravimetric Solubility at RT)?
A: ~14 mg/mL (≈ 29.9 mM)

Q: What about the solubility ([2]; 20 °C, organic solvent or mixture, solvent MeOH, RT, read-out: Gravimetric Solubility at RT) of the same molecule?
A: ~3 mg/mL (≈ 6.4 mM)

Q: What about the solubility ([2]; 20 °C, solvent Water, RT, read-out: Gravimetric Solubility at RT) of the same molecule?
A: < 1 mg/mL

Q: And the solubility ([2]; organic solvent or mixture, solvent Acetone/MeOH (1:3), 50° C., read-out: Gravimetric Solubility at 50° C.)?
A: ~41 mg/mL (≈ 87.5 mM)

Q: And the solubility ([2]; organic solvent or mixture, solvent BuOH/MeOH (1:3), 50° C., read-out: Gravimetric Solubility at 50° C.)?
A: ~24 mg/mL (≈ 51.2 mM)

Q: What about the solubility ([2]; organic solvent or mixture, solvent EtOH, 50° C., read-out: Gravimetric Solubility at 50° C.) of the same molecule?
A: ~29 mg/mL (≈ 61.9 mM)

Q: And the solubility ([2]; organic solvent or mixture, solvent IPA:water (9:1), 50° C., read-out: Gravimetric Solubility at 50° C.)?
A: ~18 mg/mL (≈ 38.4 mM)

Q: What about the solubility ([2]; organic solvent or mixture, solvent IPA, 50° C., read-out: Gravimetric Solubility at 50° C.) of the same molecule?
A: ~45 mg/mL (≈ 96 mM)

Q: What about the solubility ([2]; organic solvent or mixture, solvent MeCN, 50° C., read-out: Gravimetric Solubility at 50° C.) of the same molecule?
A: ~35 mg/mL (≈ 74.7 mM)

Q: And the solubility ([2]; organic solvent or mixture, solvent MeOH, 50° C., read-out: Gravimetric Solubility at 50° C.)?
A: ~12 mg/mL (≈ 25.6 mM)

Q: And the solubility ([2]; solvent Water, 50° C., read-out: Gravimetric Solubility at 50° C.)?
A: < 1 mg/mL

Q: What about the Relative thermodynamic stability [3] of the same molecule?
A: metastable form

Q: What about the “Nature (thermodynamic stability of crystal form)” value ([3]; Table 6 summary) of the same molecule?
A: Metastable

Q: And the solubility ([4]; alcohols, organic solvent or mixture, thermodynamic from solid, read-out: Solubility)?
A: < 10 mg/mL

Q: And the solubility ([4]; common organic solvents, organic solvent or mixture, thermodynamic from solid, read-out: Solubility)?
A: > 100 mg/mL

Q: And the solubility ([4]; organic solvent or mixture, thermodynamic from solid, solvent 1,4-Dioxane, RT, read-out: Visual Solubility at RT)?
A: > 404 mg/mL

Q: What about the solubility ([4]; organic solvent or mixture, thermodynamic from solid, solvent 2Me-THF, RT, read-out: Visual Solubility at RT) of the same molecule?
A: > 368 mg/mL

Q: And the solubility ([4]; organic solvent or mixture, thermodynamic from solid, solvent Acetone/MeOH (1:3), 50° C., read-out: Visual Solubility at 50° C.)?
A: 25 to 40 mg/mL (≈ 53.3 to 85.4 mM)

Q: What about the solubility ([4]; organic solvent or mixture, thermodynamic from solid, solvent Acetone/MeOH (1:3), RT, read-out: Visual Solubility at RT) of the same molecule?
A: 10 to 20 mg/mL (≈ 21.3 to 42.7 mM)

Q: What about the solubility ([4]; organic solvent or mixture, thermodynamic from solid, solvent Acetone, RT, read-out: Visual Solubility at RT) of the same molecule?
A: 94 to 376 mg/mL (≈ 201 to 802 mM)

Q: And the solubility ([4]; organic solvent or mixture, thermodynamic from solid, solvent BuOH/MeOH (1:3), 50° C., read-out: Visual Solubility at 50° C.)?
A: 26 to 51 mg/mL (≈ 55.5 to 109 mM)

Q: And the solubility ([4]; organic solvent or mixture, thermodynamic from solid, solvent BuOH/MeOH (1:3), RT, read-out: Visual Solubility at RT)?
A: < 10 mg/mL

Q: What about the solubility ([4]; organic solvent or mixture, thermodynamic from solid, solvent Cyclohexane, RT, read-out: Visual Solubility at RT) of the same molecule?
A: 92 to 368 mg/mL (≈ 196 to 785 mM)

Q: And the solubility ([4]; organic solvent or mixture, thermodynamic from solid, solvent DCM, RT, read-out: Visual Solubility at RT)?
A: > 404 mg/mL

Q: What about the solubility ([4]; organic solvent or mixture, thermodynamic from solid, solvent DMSO, 50° C., read-out: Visual Solubility at 50° C.) of the same molecule?
A: 25 to 50 mg/mL (≈ 53.3 to 107 mM)

Q: What about the solubility ([4]; organic solvent or mixture, thermodynamic from solid, solvent DMSO, RT, read-out: Visual Solubility at RT) of the same molecule?
A: 18 to 46 mg/mL (≈ 38.4 to 98.2 mM)

Q: What about the solubility ([4]; organic solvent or mixture, thermodynamic from solid, solvent EtOAc, RT, read-out: Visual Solubility at RT) of the same molecule?
A: > 372 mg/mL

Q: And the solubility ([4]; organic solvent or mixture, thermodynamic from solid, solvent EtOH, 50° C., read-out: Visual Solubility at 50° C.)?
A: 25 to 50 mg/mL (≈ 53.3 to 107 mM)

Q: And the solubility ([4]; organic solvent or mixture, thermodynamic from solid, solvent EtOH, RT, read-out: Visual Solubility at RT)?
A: < 9 mg/mL

Q: And the solubility ([4]; organic solvent or mixture, thermodynamic from solid, solvent Heptane, 50° C., read-out: Visual Solubility at 50° C.)?
A: 127 to 254 mg/mL (≈ 271 to 542 mM)

Q: What about the solubility ([4]; organic solvent or mixture, thermodynamic from solid, solvent Heptane, RT, read-out: Visual Solubility at RT) of the same molecule?
A: 20 to 51 mg/mL (≈ 42.7 to 109 mM)

Q: And the solubility ([4]; organic solvent or mixture, thermodynamic from solid, solvent IPA:water (9:1), 50° C., read-out: Visual Solubility at 50° C.)?
A: < 27 mg/mL

Q: And the solubility ([4]; organic solvent or mixture, thermodynamic from solid, solvent IPA:water (9:1), RT, read-out: Visual Solubility at RT)?
A: < 10 mg/mL

Q: And the solubility ([4]; organic solvent or mixture, thermodynamic from solid, solvent IPA, 50° C., read-out: Visual Solubility at 50° C.)?
A: 25 to 50 mg/mL (≈ 53.3 to 107 mM)

Q: What about the solubility ([4]; organic solvent or mixture, thermodynamic from solid, solvent IPA, RT, read-out: Visual Solubility at RT) of the same molecule?
A: < 10 mg/mL

Q: What about the solubility ([4]; organic solvent or mixture, thermodynamic from solid, solvent MIBK, RT, read-out: Visual Solubility at RT) of the same molecule?
A: 105 to 420 mg/mL (≈ 224 to 896 mM)

Q: And the solubility ([4]; organic solvent or mixture, thermodynamic from solid, solvent MTBE, RT, read-out: Visual Solubility at RT)?
A: 93 to 372 mg/mL (≈ 198 to 794 mM)

Q: And the solubility ([4]; organic solvent or mixture, thermodynamic from solid, solvent MeCN, 50° C., read-out: Visual Solubility at 50° C.)?
A: 25 to 50 mg/mL (≈ 53.3 to 107 mM)

Q: What about the solubility ([4]; organic solvent or mixture, thermodynamic from solid, solvent MeCN, RT, read-out: Visual Solubility at RT) of the same molecule?
A: 9 to 18 mg/mL (≈ 19.2 to 38.4 mM)

Q: And the solubility ([4]; organic solvent or mixture, thermodynamic from solid, solvent MeOH, 50° C., read-out: Visual Solubility at 50° C.)?
A: < 25 mg/mL

Q: What about the solubility ([4]; organic solvent or mixture, thermodynamic from solid, solvent MeOH, RT, read-out: Visual Solubility at RT) of the same molecule?
A: < 9 mg/mL

Q: What about the solubility ([4]; organic solvent or mixture, thermodynamic from solid, solvent THF/MeOH (1:1), RT, read-out: Visual Solubility at RT) of the same molecule?
A: 98 to 392 mg/mL (≈ 209 to 836 mM)

Q: And the solubility ([4]; organic solvent or mixture, thermodynamic from solid, solvent Toluene, RT, read-out: Visual Solubility at RT)?
A: > 376 mg/mL

Q: What about the solubility ([4]; thermodynamic from solid, solvent Water, 50° C., read-out: Visual Solubility at 50° C.) of the same molecule?
A: < 24 mg/mL

Q: And the solubility ([4]; thermodynamic from solid, solvent Water, RT, read-out: Visual Solubility at RT)?
A: < 9 mg/mL

Q: What about the solubility ([4]; water) of the same molecule?
A: poorly soluble
